For this data set, the system named is Rattus norvegicus. As to conditions: oral.
Setting [1] is: short-term, duration: 28 days, gavage, F, Sprague-Dawley, Clinical Observation: Salivation1000 (transient) + Body Weight Changes: Weight gain decrease + Hematology: Hgb decrease, Hct decrease, RBC ….
Setting [2] is: short-term, duration: 28 days, gavage, M, Sprague-Dawley, Clinical Observation: Salivation1000 (transient) + Body Weight Changes: Weight gain decrease + Hematology: Hgb decrease, Hct decrease, RBC ….
Where [3] appears, read: short-term, duration: 28 days, gavage, F, Sprague-Dawley.
[4] abbreviates: short-term, duration: 28 days, gavage, M, Sprague-Dawley.
The mark [5] stands for this setting: short-term, duration: 28 days, gavage, F, Sprague-Dawley, Absolute Organ Weight: Liver increase, Ovary increase, Thyroid increase + Relative Organ Weight: Ovary increase, Thyroid increase + ….
The mark [6] stands for this setting: short-term, duration: 28 days, gavage, M, Sprague-Dawley, Absolute Organ Weight: Liver increase, Ovary increase, Thyroid increase + Relative Organ Weight: Ovary increase, Thyroid increase + ….
Setting [7] is: short-term, duration: 28 days, gavage, M/F, Clinical Observation: Salivation Soft stool Mucous stool + Body Weight Changes: Weight gain decrease + Food Consumption: decrease + ….
[8] abbreviates: subchronic, duration: 90 days, gavage, M/F, Wistar, Clinical Observation: Salivation + Body Weight Changes: Weight gain decrease + Food Consumption: decrease + Urinalysis: Ket increase, ….

Regarding `C=C(F)C(F)(F)C(F)(F)C(F)F` [2,3,3,4,4,5,5-Heptafluoro-1-pentene], the NOEL (short-term, duration: 28 days, gavage, M/F, Deaths + Clinical Observation: Salivation Locomotor activity decrease, Whitish discoloration of tooth Bradypnea Reddening of extremity and …) worked out at 8 mg/kg-day.
Turning to `O=C(c1ccc(O)cc1)c1ccc(O)c(O)c1O` [2,3,4,4'-Tetrahydroxybenzophenone], the NOEL (subchronic, duration: 42 days, gavage, M, CD(SD), Clinical Observation: Salivation + Functional Observational Battery: Hind limb grip strength decrease + Body Weight Changes: Weight gain …) is less than 100 mg/kg-day.
On to `CC(=O)C(C)=O` [2,3-Butanedione], for which the NOEL (subchronic, duration: 90 days, gavage, M/F, CFE, Body Weight Changes: decrease + Water Consumption: increase + Hematology: HGB decrease, HCT decrease, RET increase, WBC increase, NEUT …) amounted to 90 mg/kg-day.
On to `CC(C)(C)OOC(C)(C)CCC(C)(C)OOC(C)(C)C` [2,5-Dimethyl-2,5-di-(tert-butylperoxy)hexane], for which, under setting [1], the LOAEL is 200 mg/kg-day, the LOEL amounted to 200 mg/kg-day, the NOAEL came to 40 mg/kg-day and the NOEL was found to be 40 mg/kg-day. Moreover, under setting [2], the LOAEL was 1000 mg/kg-day, the LOEL turned out to be 200 mg/kg-day, the NOAEL came to 200 mg/kg-day and the NOEL was determined as 40 mg/kg-day.
Turning to `Cc1ccc(C)c(N)c1` [2,5-Dimethylaniline], the NOEL (short-term, duration: 28 days, gavage, F, Sprague-Dawley, Clinical Observation: Staggering gait Lacrimation Salivation + Body Weight Changes: Body weight gain decrease + Food Consumption: decrease…) was 12 mg/kg-day and the NOEL (short-term, duration: 28 days, gavage, M, Sprague-Dawley, Clinical Observation: Staggering gait Lacrimation Salivation + Body Weight Changes: Body weight gain decrease + Food Consumption: decrease…) is less than 12 mg/kg-day.
Take `Cc1cccc(C)c1N` [2,6-Dimethylaniline]: the NOEL (subchronic, duration: 13 weeks, gavage, M/F, Fischer 344, Body Weight Changes: decrease + Hematology: WBC decrease, RBC decrease, Hgb decrease, Hct decrease, Lympho decrease + Blood Chemistry: K …) turned out to be 20 mg/kg-day.
As to `CCCCOCCOCCO` [2-(2-Butoxyethoxy)ethanol], the NOAEL (chronic, duration: 91 days, drinking water, M/F, Fischer 344, Body Weight Changes: Terminal body weight decrease + Food Consumption: decrease + Water Consumption: decrease + Hematology: RBC decrease, …) was found to be 250 mg/kg-day.
`CCCOCCOCCO` [2-(2-Propoxyethoxy)ethanol]: the NOAEL (subchronic, duration: 6 weeks, gavage, M, COBS, CD:BR, Clinical Observation: Narcosis(initial period only) + Body Weight Changes: Terminal body weight decrease + Food Consumption: decrease(day 3 …) was found to be 814 mg/kg-day.
Consider `Cc1ccc(O)c(-n2nc3ccccc3n2)c1` [2-(2H-Benzotriazol-2-yl)-4-methylphenol], for which the NOEL (subchronic, gavage, M, Sprague-Dawley, Urinalysis: Protein increase + Blood Chemistry: PL increase + Absolute Organ Weight: Liver increase + Relative Organ Weight: Liver increase…) is less than 30 mg/kg-day.
Consider `Nc1cc(Cl)ccc1O` [2-Amino-4-chlorophenol], for which the NOEL (subchronic, gavage, M, Sprague-Dawley, Hematology: RBC decrease, Hgb decrease, MCHC decrease, Ret increase, Hct decrease + Absolute Organ Weight: Spleen increase + Relative Organ …) was 50 mg/kg-day.
With `O=C(O)c1ccccc1Cl` [2-Chlorobenzoic acid], the NOEL (subchronic, gavage, M, Sprague-Dawley, Clinical Observation: Salivation + Body Weight Changes: decrease + Food Consumption: decrease + Hematology: RBC decrease, Hgb decrease, RET …) was 40 mg/kg-day.
For the compound `N#Cc1ccccc1Cl` [2-Chlorobenzonitrile], the NOEL (subchronic, gavage, M, Sprague-Dawley, Urinalysis: Ketone body increase + Hematology: APTT increase + Blood Chemistry: Cho increase, PL increase, ALT increasegamma-GTP increase, …) worked out at 10 mg/kg-day.
Take `CCCCC(CC)C(=O)OOC(C)(C)C1CCCCC1` (stereo not given) [2-Cyclohexylpropan-2-yl 2-ethylhexaneperoxoate]: the NOEL (short-term, duration: 28 days, gavage, M/F, Clinical Observation: Salivation + Blood Chemistry: GLUC decrease, TP increase, CRN decrease, BIL increase, T-CHO increase + Absolute Organ …) is less than 8 mg/kg-day.
For `C=C(C)C(=O)NCCN1CCNC1=O` [2-Methyl-N-[2-(2-oxoimidazolidin-1-yl)ethyl]prop-2-enamide], for the setting “short-term, duration: 28 days, gavage, M/F, Deaths + Clinical Observation: Salivation Abnormal breathing + Relative Organ Weight: Kidney increase + Necropsy: Stomach- Raised, limiting…”, the NOEL was 200 mg/kg-day.
For the compound `Cc1ncc[nH]1` [2-Methylimidazole], the NOEL (subchronic, diet, M/F, Fischer 344, Body Weight Changes: decrease + Food Consumption: decrease + Hematology: Plt increase, Hct decrease, Hgb decrease, RBC decrease, Ret …) was less than 60 mg/kg-day.
As to `OCCOc1ccccc1` [2-Phenoxyethanol], where the note is “subchronic, duration: 90 days, gavage, M/F, Clinical Observation: Lack of grooming Lethargy Prostration + Body Weight Changes: decrease + Food Consumption: decrease + Water Consumption…”, the NOAEL was 80 mg/kg-day.
As for `Cc1cc(-c2ccc(N)c(C)c2)ccc1N.Cl.Cl` [3,3'-Dimethylbenzidine dihydrochloride], the NOEL (subchronic, duration: 13 weeks, drinking water, M/F, Fischer 344, Deaths + Clinical Observation: Crusty red exudate on the noses Thinness Stains on the fur + Body Weight Changes: decrease + Water …) was less than 45.6 mg/kg-day.
Consider `COC(CC#N)OC` [3,3-Dimethoxypropiononitrile], for which, for the setting “short-term, duration: 28 days, gavage, M/F, Clinical Observation: Lethargy Salivation + Body Weight Changes: body weight gain decrease + Urinalysis: Urine volume increase, pH decrease…”, the NOEL is less than 15 mg/kg-day.
As for `O=C(Nc1ccccc1)c1cc2ccccc2cc1O` [3-Hydroxy-2-naphthanilide], the NOAEL amounted to 1000 mg/kg-day under setting [3] and 1000 mg/kg-day under setting [4]. Further, the NOEL is, setting by setting: under setting [3], 1000 mg/kg-day; under setting [4], 1000 mg/kg-day; (subchronic, gavage, Sprague-Dawley) 1000 mg/kg-day.
Regarding `CCCC1CCC(C2CCC(=O)CC2)CC1` (stereo not given) [4'-Propyl[1,1'-bi(cyclohexane)]-4-one], under “short-term, duration: 28 days, gavage, M/F, Clinical Observation: Salivation + Blood Chemistry: IP increase, CRN increase, GPT increase, BIL increase, TP increase, T-CHO increase, …”, the NOEL worked out at 8 mg/kg-day.
In the case of `CC(C)(C)c1cc(Cc2cc(C(C)(C)C)c(O)c(C(C)(C)C)c2)cc(C(C)(C)C)c1O` [4,4'-Methylenebis(2,6-di-t-butylphenol)], under setting [5], the LOEL came out at 200 mg/kg-day and the NOEL came to 40 mg/kg-day. For the same compound, under setting [6], the LOEL turned out to be 1000 mg/kg-day and the NOEL stood at 200 mg/kg-day.
On to `CC(C)(c1ccc(O)cc1)c1cc(C(C)(C)c2ccc(O)cc2)c(O)cc1O` [4,6-Bis[2-(4-hydroxyphenyl)propan-2-yl]benzene-1,3-diol], for which, under setting [7], the NOAEL is 20 mg/kg-day and the NOEL is less than 5 mg/kg-day.
Turning to `Cl.Nc1ccc(Cl)cc1` [4-Chloroaniline hydrochloride], where the note is “subchronic, duration: 13 weeks, gavage, M/F, Fischer 344, Deaths + Body Weight Changes: decrease + Hematology: WBC increase, Lympho increase, Hct decrease, Hgb decrease, Methemoglobin increase, RBC …”, the NOEL was less than 5 mg/kg-day.
`O=Cc1ccc(Cl)cc1` [4-Chlorobenzaldehyde]: the NOEL (short-term, duration: 28 days, gavage, F, Sprague-Dawley, Clinical Observation: Salivation Tremor Soiled perigenital fur + Functional Observational Battery: Motor activity decrease + Body Weight …) came out at 40 mg/kg-day and the NOEL (short-term, duration: 28 days, gavage, M, Sprague-Dawley, Clinical Observation: Salivation Tremor Soiled perigenital fur + Functional Observational Battery: Motor activity decrease + Body Weight …) stood at 200 mg/kg-day.
`CCCCCCc1ccc(O)cc1O` [4-Hexylresorcinol]: the NOEL (subchronic, duration: 13 weeks, gavage, M/F, Fischer 344, Deaths + Clinical Observation: Death + Body Weight Changes: decrease + Histopathology: Testis-Hypospermatogenesis Seminal vesicles-…) is less than 62.5 mg/kg-day.
`CC1(C)CC(O)CC(C)(C)N1[O]` [4-Hydroxy-2,2,6,6-tetramethylpiperidin-1-yl)oxidanyl]: for the setting “short-term, duration: 28 days, gavage, M/F, Clinical Observation: Salivation + Hematology: Trend of Anemia + Absolute Organ Weight: Spleen increase, Liver increase + Histopathology: …”, the NOEL was determined as 40 mg/kg-day.
For the compound `O=C(O)c1ccc([N+](=O)[O-])cc1` [4-Nitrobenzoic acid], the NOEL is, setting by setting: (subchronic, duration: 13 weeks, diet, F, Fischer 344, Body Weight Changes: decrease + Hematology: Methemoglobin increase, Hct decrease, ,Hgb decrease, RBC decrease, Heinz body increase + Blood …) 40 mg/kg-day; (subchronic, duration: 13 weeks, diet, M/F, Fischer 344, Body Weight Changes: decrease + Hematology: Methemoglobin increase, Hct decrease, ,Hgb decrease, RBC decrease, Heinz body increase + Blood …) less than 60.5 mg/kg-day.
Take `O=[N+]([O-])c1ccc(CCl)cc1` [4-Nitrobenzyl chloride]: where the note is “short-term, duration: 28 days, gavage, M/F, Sprague-Dawley, Clinical Observation: Salivation + Functional Observational Battery: Locomotor activity decrease + Food Consumption: decrease + Water …”, the NOEL was less than 8 mg/kg-day.
For the compound `C=CCOCCCCO` [4-allyloxy-1-butanol], the NOEL (short-term, duration: 28 days, gavage, M/F, Deaths + Clinical Observation: nasal discharge flatulence + Body Weight Changes: body weight gain decrease + Food Consumption: decrease + …) was 10 mg/kg-day.
With `CC(=O)CCC=C(C)C` [6-Methyl-5-hepten-2-one], under setting [8], the no-observed-adverse-effect level (NOAEL) was 50 mg/kg-day and the NOEL is less than 50 mg/kg-day.
As to `COc1c2occc2cc2ccc(=O)oc12` [8-Methoxypsoralen], the NOEL (subchronic, duration: 13 weeks, gavage, M/F, Fischer 344, Deaths + Clinical Observation: Rough hair coat Hunched appearance + Body Weight Changes: decrease + Absolute Organ Weight: Liver increase + …) was less than 25 mg/kg-day.
For the compound `CNC[C@H](O)c1cccc(O)c1.Cl` [(-)-Phenylephrine hydrochloride], for the setting “subchronic, duration: 12 weeks, diet, M/F, Fischer 344, Deaths + Clinical Observation: Hyperexcitable + Body Weight Changes: decrease + Histopathology: Eye-Chronic keratitis Testis-Atrophy Seminal…”, the NOEL was determined as 240 mg/kg-day.
Turning to `C=CC(=O)OCc1c(Br)c(Br)c(Br)c(Br)c1Br` [(Pentabromophenyl)methyl acrylate], the NOEL (short-term, duration: 28 days, gavage, M/F, Clinical Observation: Salivation increase, Hunchback position Staggering gait Lethargy Ptosis Emacation Flush in extremities + Urinalysis: S…) was less than 15 mg/kg-day.
Turning to `CC(=O)Nc1ccc(O)cc1` [Acetaminophen], the NOEL (short-term, duration: 19 days, gavage, F, Wistar, Deaths + Clinical Observation: Emaciation(dead animals) Hypothermia(dead animals) Bradypnea(dead animals) Locomotor activity decrease(dead …) stood at 20 mg/kg-day; the NOEL (short-term, duration: 19 days, gavage, M, Wistar, Deaths + Clinical Observation: Emaciation(dead animals) Hypothermia(dead animals) Bradypnea(dead animals) Locomotor activity decrease(dead …) was determined as 20 mg/kg-day; the NOEL (subchronic, duration: 13 weeks, diet, M/F, Fischer 344, Deaths + Clinical Observation: Dark yellow urine + Body Weight Changes: decrease + Absolute Organ Weight: Right testis decrease, Thymus …) was less than 76.8 mg/kg-day.

A word on the LOAEL: it is the lowest tested level that showed an adverse finding. The NOAEL is the highest dose or exposure tested at which no adverse effect was seen.

These data come from EPA's ToxValDB 9.5.
